Results taken from article PMC9571302, “Evaluation of Major Constituents of Medicinally Important Plants for Anti-Inflammatory, Antidiabetic and AGEs Inhibiting Properties: In Vitro and Simulatory Evidence” (Molecules, 2022).
Like-named read-outs stand apart in the source and are kept apart here.

What was measured:
[1] = biological target: T1, bovine serum albumin (BSA) glycation by methylglyoxal (Bos taurus, UniProt P02769); test: AGEs assay, oxidative (BSA-MGO assay); format: biochemical
T1 construct: purchased Merck (Dorset, UK) and Oxoid (Hampshire, UK)
Method: The test samples were added to this reaction mixture and stored at 37 °C for a week. […] The control samples used for the experiment were prepared using the same protocol without a test sample.
The AGEs inhibition was determined as % inhibition = {1 − [(Fluo (BSA + MGO + test substance) − Fluo (BSA + test substance)]/[(Fluo (BSA + MGO) − Fluo (BSA)]} × 100 where Fluo is the fluorescence intensity. The IC50 was calculated using MS Excel.

[2] = biological target: T2, bovine serum albumin (BSA) glycation by glucose (Bos taurus, UniProt P02769); test: AGEs assay, non-oxidative (BSA-glucose assay); format: biochemical
T2 construct: purchased Merck (Dorset, UK) and Oxoid (Hampshire, UK)
Method: 4.5.2. AGEs Assay (BSA-Glucose Assay)
The AGEs assay was accomplished by using a standard protocol. The protein source (bovine serum albumin, BSA) (10 mg/mL; 135 µL) was mixed with D-glucose solution (500 mM, 135 µL in phosphate buffer; 50 mM, pH 7.4), NaN3 (sodium azide; 0.02%) and test samples (various concentrations). The reaction mixtures were kept at 60 °C for 1 week to facilitate glycation. Finally, trichloroacetic acid (10 µL, 100%) was added to it to stop the reaction and precipitate the unbound material. […] Aminoguanidine was used as positive control. The control samples used for the experiment were prepared using the same protocol without the test sample.
The AGEs inhibition was calculated as % inhibition = {1 − [Fluo(BSA + glucose + test substance) − Fluo (BSA + test substance)]/[Fluo (BSA + glucose) − Fluo(BSA)]} × 100 where Fluo is the fluorescence intensity. The IC50 was calculated using MS Excel.

α-glucosidase = test: α-Glucosidase inhibition assay; format: biochemical, Saccharomyces cerevisiae
Method: 4.5.1. α-Glucosidase Inhibition Assay
The α-glucosidase inhibition experiment was accomplished by using a modified method. Initially, the enzyme solution (from Saccharomyces cerevisiae) (0.2 units/mL dissolved in 0.1 M phosphate buffer; pH 6.8) was mixed with the test sample (1 to 0.039 mg/mL) and incubated in an oven (37 °C for 10 min). After incubation, the substrate (p-nitrophenyl-α-D-glucopyranoside; 0.29 mM) was added to the enzyme and test sample solution and incubated for another 30 min (37 °C).
The percentage of inhibition was determined using the following formula: % Inhibition = [1 − absorbance of test sample/absorbance of control] × 100

[3] = biological target: T3, BSA cross-link formation (BSA-MGO) (Bos taurus, UniProt P02769); test: Protein cross-linking assay by SDS-PAGE, BSA-MGO; format: biochemical, bovine; settings: SDS-PAGE integrated density
T3 construct: purchased Merck (Dorset, UK) and Oxoid (Hampshire, UK)
Method: (§1) 4.5.4. Protein Cross-Linking Assay
(§2) Protein cross-linked by AGEs were observed by SDS-PAGE (sodium dodecyl sulphate-polyacrylamide gel electrophoresis). In this experiment, gels (10%) were made and stained with dye (0.25% Coomassie blue). The protein samples (6 µL) were diluted with Tris–HCl buffer (3.75 mL, 0.05 M; pH 6.8) also comprising sodium dodecyl sulphate (150 µL, 10% w/v), 2-mercaptoethanol 1% (v/v) and glycerin 20% v/v), followed by boiling for 5 min. The ladder (12 μL) was loaded into the well on gel preceded by the loading of bromophenol blue (2 μL). After loading, the electrophoresis was accomplished by using the Mini-Protean® Tetra Cell apparatus (Bio-Rad, UK). Afterwards, the gels were stained in a solution containing Coomassie blue [0.25% (w/v)], methanol [50% (v/v)] and acetic acid [10% (v/v)].
(§3) 4.5.5. SDS-PAGE Gels Image Analysis
(§4) The developed gel was stained with Coomassie blue and images were obtained using GelDoc. Finally, the Image J tool was used for the determination of integrated density (IntDen). The integrated density was employed further for the determination of percentage inhibition. The integrated density (ID) was determined as follows:Integrated density (ID) = N × (mean − background) where N is the number of pixels in the selection and the background is the modal grey value (most common pixel value) after smoothing the histogram.

15-LOX (lipoxygenase) = biological target: T4, 15-LOX (lipoxygenase) (Glycine max, UniProt P08170); test: 15-Lipoxygenase assay; format: biochemical
T4 construct: purchased Merck (Dorset, UK) and Oxoid (Hampshire, UK)
T4 sequence (P08170 1-839): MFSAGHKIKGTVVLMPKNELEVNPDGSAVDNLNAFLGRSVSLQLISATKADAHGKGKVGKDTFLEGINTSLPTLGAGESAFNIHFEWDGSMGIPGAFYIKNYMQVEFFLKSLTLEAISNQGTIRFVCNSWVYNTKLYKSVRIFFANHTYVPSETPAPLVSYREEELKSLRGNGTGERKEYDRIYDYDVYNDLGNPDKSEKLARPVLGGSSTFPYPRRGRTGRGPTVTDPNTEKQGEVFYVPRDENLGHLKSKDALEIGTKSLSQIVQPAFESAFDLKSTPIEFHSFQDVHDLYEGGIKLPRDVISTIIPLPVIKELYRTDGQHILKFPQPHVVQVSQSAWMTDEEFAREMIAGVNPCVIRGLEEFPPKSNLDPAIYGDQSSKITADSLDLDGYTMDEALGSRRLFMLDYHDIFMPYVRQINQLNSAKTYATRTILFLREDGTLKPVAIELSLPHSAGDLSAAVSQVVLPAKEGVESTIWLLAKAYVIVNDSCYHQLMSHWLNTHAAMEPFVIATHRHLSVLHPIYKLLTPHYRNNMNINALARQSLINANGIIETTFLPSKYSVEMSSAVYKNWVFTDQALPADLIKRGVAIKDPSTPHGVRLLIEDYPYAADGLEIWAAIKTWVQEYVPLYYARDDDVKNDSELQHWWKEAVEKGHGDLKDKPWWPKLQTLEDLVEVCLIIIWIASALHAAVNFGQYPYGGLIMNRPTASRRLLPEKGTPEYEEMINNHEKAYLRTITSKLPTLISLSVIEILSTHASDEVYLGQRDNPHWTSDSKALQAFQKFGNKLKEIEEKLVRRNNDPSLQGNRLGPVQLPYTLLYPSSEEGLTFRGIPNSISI
Method: The anti-inflammatory activity of test samples was evaluated using a standard protocol [65]. To the enzyme solution (200 units/mL; 487.5 µL), different concentrations of test sample (12.5 µL (2–0.062 mM) in DMSO were added and incubated for 5 min at 37 °C. The absorbance was recorded immediately after the addition of substrate (500 µL of substrate (250 mM linoleic acid in 0.2 M borate buffer, pH 9) and after every min up to 5 min at 234 nm by using a UV spectrophotometer (UV-1601, SHEMADZU, Kyoto, Japan).
The percentage inhibition of enzyme activity was calculated as follows:% inhibition = ([ΔA1/Δt] − [ΔA2/Δt]/(ΔA1/Δt) × 100 where ΔA1/Δt and ΔA2/Δt are the increase rate in absorbance at 234 nm for a sample without test substance and with test substance, respectively.

[4] = biological target: T5, BSA cross-link formation (BSA-glucose) (Bos taurus, UniProt P02769); test: Protein cross-linking assay by SDS-PAGE, BSA-glucose; format: biochemical, bovine; settings: SDS-PAGE integrated density
T5 construct: purchased Merck (Dorset, UK) and Oxoid (Hampshire, UK)
Method: as §1, §2, §3, §4

[5] = read-out: 15-LOX Assay (% Inhibition)
[6] = oxidative mode, Table 6, read-out: Protein Glycation BSA-MGO (IC50) (converted)
[7] = non-oxidative mode, Table 6, read-out: Protein Glycation BSA-Glucose (IC50) (converted)

T5 sequence (P02769 25-607): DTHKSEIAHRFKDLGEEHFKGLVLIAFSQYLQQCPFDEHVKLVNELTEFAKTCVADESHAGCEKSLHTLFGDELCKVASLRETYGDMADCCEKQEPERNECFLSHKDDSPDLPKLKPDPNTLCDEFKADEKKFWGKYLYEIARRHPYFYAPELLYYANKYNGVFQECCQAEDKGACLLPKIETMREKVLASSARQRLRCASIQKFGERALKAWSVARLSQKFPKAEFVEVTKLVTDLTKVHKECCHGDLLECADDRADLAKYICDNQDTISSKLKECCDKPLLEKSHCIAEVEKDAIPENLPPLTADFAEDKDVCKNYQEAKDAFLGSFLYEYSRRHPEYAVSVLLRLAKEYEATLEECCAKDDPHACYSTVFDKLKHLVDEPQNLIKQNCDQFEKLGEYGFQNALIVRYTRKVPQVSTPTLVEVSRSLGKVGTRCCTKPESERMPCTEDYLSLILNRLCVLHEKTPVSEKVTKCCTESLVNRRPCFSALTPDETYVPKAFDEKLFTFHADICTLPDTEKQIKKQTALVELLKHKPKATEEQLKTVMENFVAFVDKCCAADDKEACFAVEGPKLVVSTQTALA
T3 sequence (P02769 25-607): as above
T1 sequence (P02769 25-607): as above
T2 sequence (P02769 25-607): as above

Structure (SMILES): S=C=NCCc1ccccc1 [2-Phenylethylisothiocyanate, 2-phenylethylisothiocyanate]
- Protein Glycation BSA-MGO (IC50) [1]: Inactive
- Protein Glycation BSA-Glucose (IC50) [2]: Inactive
- α-Glucosidase (IC50) (α-glucosidase): 28.9 ± 0.1 µg/mL
- Inhibition of protein cross-link formation [3]: 48%
- 15-LOX Assay (% Inhibition) (15-LOX (lipoxygenase); 25 µg/mL): Inactive ^5

Structure (SMILES): O=c1cc(-c2ccc(O)cc2)oc2cc(O)cc(O)c12 [Apigenin, apigenin]
- Protein Glycation BSA-MGO (IC50) [1]: Inactive
- IC50 [2]: 1670 µM
- α-Glucosidase (IC50) (α-glucosidase): 24.4 ± 0.1 µg/mL
- Inhibition of protein cross-link formation [4]: 51%
- inhibition at 14.1 µg/mL (15-LOX (lipoxygenase); 14.1 µg/mL): 53 ± 0.1%

Structure (SMILES): C=C1CC[C@H]2O[C@]2(C)CC[C@@H]2[C@@H]1CC2(C)C [Caryophyllene oxide, caryophyllene-oxide]
- Protein Glycation BSA-MGO (IC50) ([1]; oxidative mode, Table 6): Inactive
- Protein Glycation BSA-Glucose (IC50) ([2]; non-oxidative mode, Table 6): Inactive
- α-Glucosidase (IC50) (α-glucosidase): Inactive
- Inhibition of protein cross-link formation [3]: 35%
- 15-LOX Assay (% Inhibition) (15-LOX (lipoxygenase); 12.5 µg/mL): 50.0± 0.1% ^2

Structure (SMILES): C=C1CC/C=C(\C)CC[C@@H]2[C@@H]1CC2(C)C [Caryophyllene, trans-caryophyllene]
- Protein Glycation BSA-MGO (IC50) [1]: Inactive
- Protein Glycation BSA-Glucose (IC50) [2]: Inactive
- α-Glucosidase (IC50) (α-glucosidase): Inactive
- 15-LOX Assay (% Inhibition) (15-LOX (lipoxygenase); 25 µg/mL): Inactive ^6

Structure (SMILES): C=CCc1ccc(O)c(OC)c1 [Eugenol, eugenol]
- Protein Glycation BSA-MGO (IC50) [1]: Inactive
- IC50 [2]: 244 µM
- α-Glucosidase (IC50) (α-glucosidase): Inactive
- inhibition at 83 µg/mL (15-LOX (lipoxygenase); [5]): 51 ± 0.2%

Structure (SMILES): O=C1C=CC(=O)c2c(O)cccc21 [Juglone, juglone]
- IC50 [1, 6]: 632 µM
- IC50 [2, 7]: 345 µM
- α-Glucosidase (IC50) (α-glucosidase): 5.7 ± 0.1 µg/mL
- Inhibition of protein cross-link formation [3]: 39%
- inhibition at 2.5 µg/mL (15-LOX (lipoxygenase); 2.5 µg/mL): 57 ± 0.1%

Structure (SMILES): O=c1c(O)c(-c2ccc(O)c(O)c2)oc2cc(O)cc(O)c12 [Quercetin, quercetin]
- Inhibition of protein cross-link formation [4]: 53%
- inhibition at 25 µg/mL (15-LOX (lipoxygenase); 25 µg/mL): 62 ± 0.1%

Structure (SMILES): C[C@@H]1O[C@@H](Oc2c(-c3ccc(O)c(O)c3)oc3cc(O)cc(O)c3c2=O)[C@H](O)[C@H](O)[C@H]1O [Quercitrin, quercitrin]
- IC50 [1]: 758 µM
- IC50 [2]: 201 µM
- α-Glucosidase (IC50) (α-glucosidase): 7.6 ± 0.1 µg/mL
- Inhibition of protein cross-link formation [4]: 55%
- inhibition at 16.2 µg/mL (15-LOX (lipoxygenase); [5]): 65 ± 0.1%

Structure (SMILES): C[C@@H]1O[C@@H](OC[C@H]2O[C@@H](Oc3c(-c4ccc(O)c(O)c4)oc4cc(O)cc(O)c4c3=O)[C@H](O)[C@@H](O)[C@@H]2O)[C@H](O)[C@H](O)[C@H]1O [Rutin, reference compound]
- IC50 [1, 6]: 1670 µM
- IC50 [2, 7]: 49.1 µM
- inhibition at 12.5 µg/mL (15-LOX (lipoxygenase); 12.5 µg/mL): 62 ± 0.1%

Structure (SMILES): O=C(O)c1cc(O)c(O)c(O)c1 [gallic acid]
- α-Glucosidase (IC50) (α-glucosidase): 8.2 µg/mL

Structure (SMILES): C/C1=C\CC/C(C)=C/CC(C)(C)/C=C/C1 [α-Humulene, α-humulene]
- Protein Glycation BSA-MGO (IC50) ([1]; oxidative mode, Table 6): Inactive
- Protein Glycation BSA-Glucose (IC50) ([2]; non-oxidative mode, Table 6): Inactive
- α-Glucosidase (IC50) (α-glucosidase): Inactive
- Inhibition of protein cross-link formation [3]: 40%
- 15-LOX Assay (% Inhibition) (15-LOX (lipoxygenase); 13.0 µg/mL): 60.0 ± 0.1% ^3
